Data: patent US10253002B2, “Compounds and methods of treating infections” (Neoculi Pty Ltd., priority 2013, dated 2019)
Several values for one entry are separate records, joined by “and”; a condition that tells them apart may be missing. Equal values may be shown once. Read-outs that look alike come from different tables or passages of the source.

Columns and labels:
S. pneumoniae isolates = test: Disk diffusion susceptibility (CLSI/EUCAST), Example 5; type: cell-based, Streptococcus pneumoniae
Method in brief: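 Susceptibility to 12 antimicrobials was categorised (S/I/R) using CLSI breakpoints from zones of complete inhibition, read thrice to the nearest millimetre with the mode taken. Incubation was 16–24 h, 37 °C, 5% CO2.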

[1] = test system: Staphylococcus pseudintermedius isolates (MSSP and MRSP); test: Disk diffusion and Epsilometer susceptibility testing, Example 6; type: cell-based; details: 13 MRSP isolates
[2] = test system: Staphylococcus aureus T3-129 / Staphylococcus spp. MK1; test: Synergy studies, checkerboard method (FIC index); type: cell-based; details: for FICI: FIC index of antibiotic with NCL812; for Result (interaction with NCL812): antibiotic with NCL812
MRSA = test: Broth microdilution MIC, Example 7 (NCL812 and analogues); type: cell-based, Staphylococcus aureus; details: for activity against MRSA among analogues: MIC testing, two MRSA strains; for MIC: Staphylococcus aureus; for MRSA / MIC: MRSA
Method in brief: (§1)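 CLSI broth microdilution against two MRSA and two VRE strains, tested in duplicate with a third run if results differed by more than one two-fold dilution.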

Pseudomonas aeruginosa = test: as above; type: cell-based; details: 24 hours; for MIC: Pseudomonas aeruginosa, 24 h, read-out: MIC (μg/ml) at 24 hours, P. aeruginosa, duplicate lines per compound
VRE = test: as above; type: cell-based, Enterococcus spp.; details: for activity against VRE among analogues: MIC testing, two VRE strains; for MIC: Enterococcus; for VRE / MIC: VRE
Method in brief: as §1

[3] = Bioassay ranking of the analogues tested; details: M + R (MRSA and VRE combined)
Escherichia coli = test: Broth microdilution MIC, Example 7 (NCL812 and analogues); type: cell-based; details: 24 hours; for MIC: Escherichia coli, read-out: MIC (μg/ml) at 24 hours, duplicate lines per compound
[4] = isolate MRSA 1, 24 hours, 1st and 2nd replicate rows
[5] = isolate MRSA 2, 24 hours, 1st and 2nd replicate rows
[6] = isolate VRE 1, 24 hours, 1st and 2nd replicate rows
[7] = isolate VRE 2, 24 hours, 1st and 2nd replicate rows
[8] = MRSA 2, 24 hours, duplicate lines per compound
[9] = 24 h, read-out: MIC (μg/ml) at 24 hours, MRSA 1, MRSA 1, 24 hours, duplicate lines per compound
[10] = 24 h, read-out: MIC (μg/ml) at 24 hours, MRSA 2, MRSA 2, 24 hours, duplicate lines per compound
[11] = bioassay ranking, read-out: MRSA
[12] = 24 h, read-out: MIC (μg/ml) at 24 hours, VRE 1, VRE 1, 24 hours, duplicate lines per compound
[13] = 24 h, read-out: MIC (μg/ml) at 24 hours, VRE 2, VRE 2, 24 hours, duplicate lines per compound
[14] = bioassay ranking, read-out: VRE

SMILES: O=C(N[C@H](CO)[C@H](O)c1ccc([N+](=O)[O-])cc1)C(Cl)Cl [Chloramphenicol]
- disk diffusion zone diameter (S. pneumoniae isolates; A66.1): 34 mm
- disk diffusion zone diameter (S. pneumoniae isolates; D39): 31 mm
- disk diffusion zone diameter (S. pneumoniae isolates; EF3030): 29 mm
- disk diffusion zone diameter (S. pneumoniae isolates; L82016): 26 mm
- disk diffusion zone diameter (S. pneumoniae isolates; P9): 31 mm
- disk diffusion zone diameter (S. pneumoniae isolates; P21): 35 mm
- disk diffusion zone diameter (S. pneumoniae isolates; TIGR4): 32 mm
- disk diffusion zone diameter (S. pneumoniae isolates; WCH16): 11 mm
- disk diffusion susceptibility category (S. pneumoniae isolates; WCH16 (Table 18)): R
- disk diffusion zone diameter (S. pneumoniae isolates; WCH43): 26 mm
- disk diffusion zone diameter (S. pneumoniae isolates; WCH46): 28 mm
- disk diffusion zone diameter (S. pneumoniae isolates; WCH57): 40 mm
- disk diffusion zone diameter (S. pneumoniae isolates; WCH77): 36 mm
- disk diffusion zone diameter (S. pneumoniae isolates; WCH86): 34 mm
- disk diffusion zone diameter (S. pneumoniae isolates; WCH89): 32 mm
- disk diffusion zone diameter (S. pneumoniae isolates; WCH92): 32 mm
- disk diffusion zone diameter (S. pneumoniae isolates; WCH137): 31 mm
- disk diffusion zone diameter (S. pneumoniae isolates; WCH158): 34 mm
- disk diffusion zone diameter (S. pneumoniae isolates; WCH184): 29 mm
- disk diffusion zone diameter (S. pneumoniae isolates; WCH211): 32 mm
- disk diffusion zone diameter (S. pneumoniae isolates; WU2): 30 mm
- MRSP isolates susceptible [1]: 23%
- FICI ([2]; S. aureus strain T3-29): 0.75 and 0.562
- Antibiotic MIC Alone ([2]; S. aureus strain T3-29): 8 µg/mL and 4 µg/mL
- Result (interaction with NCL812) ([2]; S. aureus strain T3-29): NE (No effect (NE) was defined as 0.5<FICI<4)

SMILES: Cc1cc(NS(=O)(=O)c2ccc(N)cc2)no1 [Sulfamethoxazole]
- FICI ([2]; Staphylococcus spp. Strain MK1): 0.75 and 1
- FIC1 ([2]; Staphylococcus spp. Strain MK1, MIC of antibiotic in combination with NCL812/MIC of antibiotic alone): 0.5
- Antibiotic MIC Alone ([2]; Staphylococcus spp. Strain MK1): 8 µg/mL
- Antibiotic MIC With NCL812 ([2]; Staphylococcus spp. Strain MK1, antibiotic in combination with NCL812): 4 µg/mL
- Result (interaction with NCL812) ([2]; Staphylococcus spp. Strain MK1): NE (No effect (NE) was defined as 0.5<FICI<4)

SMILES: Cl.N=C(N/N=C/c1ccc(F)cc1)N/N=C/c1ccc(F)cc1 [NCL021]
- activity against MRSA among analogues (MRSA): greatest activity
- MRSA (MRSA; bioassay ranking): 16 µg/mL
- MIC (μg/ml) at 24 hours, MRSA 1 (MRSA; [4]): 16 µg/mL
- MIC (μg/ml) at 24 hours, MRSA 2 (MRSA; [5]): 16 µg/mL
- MIC (μg/ml) at 24 hours, P. aeruginosa (Pseudomonas aeruginosa; 1st and 2nd replicate rows): >128 µg/mL
- activity against VRE among analogues (VRE): greatest activity
- VRE (VRE; bioassay ranking): 8 µg/mL
- MIC (μg/ml) at 24 hours, VRE 1 (VRE; [6]): 8 µg/mL
- MIC (μg/ml) at 24 hours, VRE 2 (VRE; [7]): 8 µg/mL
- M + R [3]: 12 µg/mL
- MIC (μg/ml) at 24 hours, E. coli (Escherichia coli; 1st and 2nd replicate rows): >128 µg/mL

SMILES: Cl.N=C(N/N=C/c1ccc(Cl)cc1)N/N=C/c1ccc(C(F)(F)F)cc1F [NCL078]
- activity against MRSA among analogues (MRSA): greatest activity
- MIC (μg/ml) at 24 hours, MRSA 2 (MRSA; [8]): 8 µg/mL
- MIC (MRSA; [9]): 4 µg/mL
- MIC (MRSA; [10]): 16 µg/mL
- MIC (MRSA; [11]): 8 µg/mL
- MIC (Pseudomonas aeruginosa): > 128 µg/mL
- MIC (VRE; [12]): 4 µg/mL
- MIC (VRE; [13]): 4 µg/mL
- MIC (VRE; [14]): 3 µg/mL
- activity against VRE among analogues (VRE): greatest activity
- MIC (μg/ml) at 24 hours, VRE 1 (VRE; VRE 1, 24 hours, duplicate lines per compound): 2 µg/mL
- MIC (μg/ml) at 24 hours, VRE 2 (VRE; VRE 2, 24 hours, duplicate lines per compound): 2 µg/mL
- M + R [3]: 5.5 µg/mL
- MIC (Escherichia coli; E. coli): > 128 µg/mL

SMILES: COc1cccc(C=NNC(=N)NN=Cc2cccc(OC)c2)c1.Cl [NCL029]
- activity against MRSA among analogues (MRSA): greatest activity
- MRSA (MRSA; bioassay ranking): 32 µg/mL
- MIC (μg/ml) at 24 hours, MRSA 1 (MRSA; [4]): 32 µg/mL
- MIC (μg/ml) at 24 hours, MRSA 2 (MRSA; [5]): 32 µg/mL
- MIC (μg/ml) at 24 hours, P. aeruginosa (Pseudomonas aeruginosa; 1st and 2nd replicate rows): >128 µg/mL
- activity against VRE among analogues (VRE): greatest activity
- VRE (VRE; bioassay ranking): 32 µg/mL
- MIC (μg/ml) at 24 hours, VRE 1 (VRE; [6]): 32 µg/mL
- MIC (μg/ml) at 24 hours, VRE 2 (VRE; [7]): 32 µg/mL
- M + R [3]: 32 µg/mL
- MIC (μg/ml) at 24 hours, E. coli (Escherichia coli; 1st and 2nd replicate rows): >128 µg/mL

SMILES: Cl.N=C(N/N=C/c1ccc(F)cc1)N/N=C/c1ccc(Cl)cc1 [NCL079]
- activity against MRSA among analogues (MRSA): greatest activity
- MIC (μg/ml) at 24 hours, MRSA 2 (MRSA; [8]): 8 µg/mL
- MIC (MRSA; [9]): 4 µg/mL
- MIC (MRSA; [10]): 4 µg/mL
- MIC (MRSA; [11]): 5 µg/mL
- MIC (Pseudomonas aeruginosa): > 128 µg/mL
- MIC (VRE; [12]): 2 µg/mL
- MIC (VRE; [13]): 4 µg/mL
- MIC (VRE; [14]): 3 µg/mL
- activity against VRE among analogues (VRE): greatest activity
- M + R [3]: 4 µg/mL
- MIC (Escherichia coli; E. coli): > 128 µg/mL

SMILES: CC(=NNC(=N)NN=C(C)c1ccc(Cl)cc1F)c1ccc(Cl)cc1F.Cl [NCL215]
- activity against MRSA among analogues (MRSA): greatest activity
- MIC (μg/ml) at 24 hours, MRSA 1 (MRSA; MRSA 1, 24 hours): 8 µg/mL and 16 µg/mL
- MIC (μg/ml) at 24 hours, MRSA 2 (MRSA; MRSA 2, 24 hours): 8 µg/mL
- MRSA (MRSA; bioassay ranking): 10 µg/mL
- MIC (μg/ml) at 24 hours, P. aeruginosa (Pseudomonas aeruginosa; P. aeruginosa): >128 µg/mL
- activity against VRE among analogues (VRE): greatest activity
- MIC (μg/ml) at 24 hours, VRE 1 (VRE; VRE 1, 24 hours): 2 µg/mL and 4 µg/mL
- MIC (μg/ml) at 24 hours, VRE 2 (VRE; VRE 2, 24 hours): 4 µg/mL and 8 µg/mL
- VRE (VRE; bioassay ranking): 4.5 µg/mL
- M + R [3]: 7.25 µg/mL
- MIC (μg/ml) at 24 hours, E. coli (Escherichia coli; E. coli): >128 µg/mL
